According to paper PMC12081876, “Identification of PTGR2 inhibitors as a new therapeutic strategy for diabetes and obesity” (EMBO Molecular Medicine, 2025):

Experiments:
PTGR2 = assay: 15-keto-PGE2 content in fat tissue after BPRPT0245 dosing; format: in vivo, mouse; conditions: BPRPT0245 100 mg/kg/day oral, 4 days, 2 h after last dose, vs vehicle
Method: Liquid nitrogen-frozen tissue was grinded using pestle and mortar. Approximately 500 mg of tissue powders were immersed with 400 μL of the upper layer of acetonitrile (ACN)/hexane mixture supplemented with 0.5% formic acid, and then homogenized with ceramic beads by MagNA Lyser (Roche, USA). The homogenate was then added with 600 μL ACN containing 13,14 dihydro-15-keto-PGE2-d4 (cat no. 10007978, Cayman Chemical, Ann Arbor, MI) in 1:20,000 dilution and homogenized, followed by the addition of 600 μL ddH2O. The mixture was centrifuged at 12,000 × g for 10 min at 0 °C. The lower layer was transferred to a new tube. A C-18 solid-phase extraction (SPE) cartridge (Cat no. 400020, Cayman Chemical) was sequentially activated with 20 mL methanol and 20 mL ddH2O. The protein sample was loaded into activated SPE cartridge. Once the sample passed the cartridge, the cartridge was washed with 5 mL 15% methanol and then 5 mL ddH2O. Finally, the sample was eluted with 10 mL HPLC-degree methanol (Methanol Chromasolv LC-MS, Fluka) and aliquoted into new 2-mL tubes. […]
The HPLC system consisted of an Agilent 1200 series LC System with BinPump (Waldbronn, Germany) and an Agilent Eclipse XDB C8 (3.0 × 150 mm, 5 µm) interfaced to a Sciex API 4000 tandem mass spectrometer. […] The ions monitored for BPRPT0245 were m/z 447/189 and m/z 357/195, respectively. […]

[1] = Serum ALT, total bilirubin, BUN and creatinine; format: in vivo, mouse; conditions: 100 mg/kg/day, vs vehicle
Ucp1 = assay: Relative Ucp1 expression in fat depots (RT-qPCR); format: in vivo, mouse; conditions: 40 mg/kg/day ip, HFHSD-fed mice, vs vehicle
[2] = test system: murine PPARγ Ser273 phosphorylation; assay: PPARγ Ser273 phosphorylation in adipose tissue of mice; format: in vivo, mouse; conditions: 40 mg/kg/day, 3 weeks, HFHSD
Method: The epididymal adipose tissues were obtained and lysed in RIPA buffer supplemented with 1X cOmplete™, EDTA-free Protease Inhibitor Cocktail (cat no.04693132001, Roche) and 1X PhosSTOP™ (cat. no. 4906845001, Roche).
The protein concentrations of tissue lysates were measured by Bradford reagent (cat. no. BP500-0006, Bio-Rad). The protein samples were mixed with 6X sample buffer (0.3 M Tris-HCl, pH 6.8, 0.6 M DTT, 12% SDS, 0.6% Bromophenel blue and 60% glycerol) and heated at 70 °C for 5 min. 30 μg of each sample were separated by 10% SDS-PAGE gel and were transferred to PVDF membrane. The membrane was blocked by 3% BSA in Tris-buffered saline containing 0.1% Tween-20 for 1 h at room temperature and incubated with primary antibody at 4 °C overnight. Primary antibodies include anti-Ser273 phospho-PPARγ (1:1000, cat. no. BS-4888R, Bioss), anti-PPARγ (1:1500, cat. no.16643-1-AP, Proteintech) and anti-GAPDH (1:5000, cat. no. GTX100118, GeneTex). On the next day, the membranes were incubated with the anti-rabbit IgG HRP-secondary antibody (1:10,000, cat. no. GTX213110-01, GeneTex) for 1 h at RT. Immunoblots were developed using the Immobilon Forte Western HRP Substrate (cat. no. WBLUF0500, Lot Number: 231445, Millipore) and exposed by MultiGel-21 (cat. no. MGIS-21-C2, EBL). Protein expression of phospho-PPARγ was analyzed using ImageJ software and normalized against PPARγ and GAPDH.

hPTGR2 = hPTGR2 (Homo sapiens, UniProt Q8N8N7); assay: Conversion of 15-keto-PGE2 by recombinant human PTGR2 protein; format: biochemical; set-up: made in house; conditions: incubated with recombinant human PTGR2 protein
hPTGR2, sequence (Q8N8N7 whole entry): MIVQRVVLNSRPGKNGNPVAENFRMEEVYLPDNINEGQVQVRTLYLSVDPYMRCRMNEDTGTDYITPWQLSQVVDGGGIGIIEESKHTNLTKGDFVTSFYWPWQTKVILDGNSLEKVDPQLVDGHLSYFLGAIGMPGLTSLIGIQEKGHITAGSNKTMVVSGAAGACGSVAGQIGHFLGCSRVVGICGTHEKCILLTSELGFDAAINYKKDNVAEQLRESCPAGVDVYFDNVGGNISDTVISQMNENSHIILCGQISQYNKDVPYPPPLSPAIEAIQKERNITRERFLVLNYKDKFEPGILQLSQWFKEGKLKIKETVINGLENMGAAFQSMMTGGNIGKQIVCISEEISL

Compound	increase of 15-keto-PGE2 content in inguinal fat (PTGR2)	increase of 15-keto-PGE2 content in perigonadal fat (PTGR2; trend)	serum ALT, total bilirubin, BUN and creatinine levels [1]	expression of Ucp1 in fat depots (Ucp1)	phosphorylation of PPARγ Ser273 [2]	15-keto-PGE2 converted into 13,14-dihydro-15-keto-PGE2 (hPTGR2) [%]
Cc1[nH]c2nc(C(C)N3CCN(c4ccccc4)CC3)nn2c(=O)c1Cc1ccc(F)cc1 (stereo not drawn) [BPRPT0245]	~ 1.32 fold	~ 1.34 fold	no differences	–	–	–
CCCCCC(=O)/C=C/[C@H]1[C@H](O)CC(=O)[C@@H]1C/C=C\CCCC(=O)O [15-keto-PGE2, 15-keto-prostaglandin E2]	–	–	–	increased expression of Ucp1 in inguinal, perigonadal, and brown adipose tissues	dose-dependently reduced phosphorylation of Ser273	99.83
